# According to US4611001A, “Antimycotic pyrazolotetrathiepins” (E. I. Du Pont de Nemours and Company, priority 1985, dated 1986):
# Legend:
# fungi = assay: in vitro antifungal (antimycotic) activity, general statement; assay type: cell-based; conditions: by-product; test not specified
# Excerpt: (§1) The fused pyrazolotetrathiepins of the invention are useful as antimycotic agents. The data is a result of different state of the art protocols, which employ either agar dilution or microtiter broth dilution techniques.
# [1] = system: Candida albicans (CAND-1); assay: Protocol 5: microtiter broth dilution MIC/MFC, EMEM broth pH 7.4; assay type: cell-based, Candida albicans ATCC 11651
# Excerpt: as §1
# (§2) The test organisms used are two yeasts, Candida albicans ATCC 11651 (CAND-1), C. albicans ATCC e10231 (CAND-2) and two dermatophyte strains. Microsporum gypseum ATCC e9083 (MICRO-1) and Trichophyton rubrum ATCC 18756 (TRICH-1). These organisms are standardized to a concentration of 10^7 organisms/mL, aliquoted and frozen at -70°.
# (§3) The compounds are dissolved in dimethyl sulfoxide (DMSO) and tested at specific concentrations required for the particular assay.
# (§4) Appropriate standards are included with each assay. Their minimal inhibitory concentrations (MIC) values are shown in Table 4 according to the particular protocol used. Stock solutions of standard agents are stored at -70° and diluted the day of the assay.
# (§5) Protocols 4 and 5 both utilize a standard microtiter broth dilution method described by Barry (Antimicrobic Susceptibilty Test: Principles and Practices, Lea and Febiger, 1976) but each uses a different medium. Protocol 4 uses Yeast Nitrogen Base broth pH 7.0 [Shadomy, S. Applied Microbiology, 17, 871-877 (1969)] while protocol 5 uses EMEM broth pH 7.4. The test organisms, CAND-1 and CAND-2 are diluted in the appropriate broth to achieve an inoculum of 1×10^4 CFUs/mL.
# (§6) The compounds are tested from 100 μg/mL-0.4 μg/mL in 10-two fold serial dilutions and the assay is incubated at 37°, 5% CO2 for 24 hrs. MFC's are then determined as previously described but the plates are incubated under the conditions appropriate for Candida spp.
# [2] = system: Candida albicans (CAND-1); assay: Protocol 4: microtiter broth dilution MIC, Yeast Nitrogen Base broth pH 7.0; assay type: cell-based, Candida albicans ATCC 11651; conditions: for MIC: Candida albicans
# Excerpt: as §1, §2, §3, §4, §5, §6
# [3] = system: Candida albicans (CAND-2); assay: as above; assay type: cell-based, C. albicans ATCC e10231; conditions: for MIC: Candida albicans
# Excerpt: as §1, §2, §3, §4, §5, §6
# [4] = system: Candida albicans (CAND-2); assay: Protocol 5: microtiter broth dilution MIC/MFC, EMEM broth pH 7.4; assay type: cell-based, C. albicans ATCC e10231
# Excerpt: as §1, §2, §3, §4, §5, §6
# [5] = system: Candida albicans (CAND-1); assay: In vitro dilution MIC, protocol not given; assay type: cell-based, Candida albicans ATCC 11651; conditions: up to 100 μg/mL
# Excerpt: as §1, §2, §3
# (§7) Protocols 4 and 5 both utilize a standard microtiter broth dilution method described by Barry (Antimicrobic Susceptibilty Test: Principles and Practices, Lea and Febiger, 1976) but each uses a different medium. Protocol 4 uses Yeast Nitrogen Base broth pH 7.0 [Shadomy, S. Applied Microbiology, 17, 871-877 (1969)] while protocol 5 uses EMEM broth pH 7.4. […]
# as §6
# [6] = system: Microsporum gypseum (MICRO-1); assay: Protocol 2: agar dilution MIC, Eagle's Minimum Essential Medium Agar (EMEM); assay type: cell-based, Microsporum gypseum ATCC e9083; conditions: Nannizzia gypsea
# Excerpt: as §1, §2, §3, §4
# (§8) Protocols 1 & 2 use a modification of the agar dilution method (Barry, A. L., The Antimicrobic Susceptibility Test: Principles and Practices, Lea and Febiger, 1976) with either Sabouraud dextrose agar (protocol 1) or Eagle's Minimum Essential Medium Agar (EMEM) (protocol 2).
# (§9) The compound is tested at four specific concentrations within the range of 100 μg/mL-0.04 μg/mL and is incorporated directly into 20 mL molten agar (50°). The plates are then inoculated with the spore suspensions of MICRO-1 and TRICH-1 at 5×10^6 spores/mL using a multi point inoculator. The plates are incubated at ambient temperature for seven days and the MIC values determined.
# [7] = system: Candida albicans (CAND-2); assay: In vitro dilution MIC, protocol not given; assay type: cell-based, C. albicans ATCC e10231; conditions: up to 100 μg/mL
# Excerpt: as §1, §2, §3, §7, §6
# [8] = system: Trichophyton rubrum (TRICH-1); assay: Protocol 2: agar dilution MIC, Eagle's Minimum Essential Medium Agar (EMEM); assay type: cell-based, Trichophyton rubrum ATCC 18756
# Excerpt: as §1, §2, §3, §4, §8, §9
# [9] = system: Trichophyton rubrum (TRICH-1); assay: Protocol 3: microtiter broth dilution MIC/MFC for dermatophytes, EMEM; assay type: cell-based, Trichophyton rubrum ATCC 18756
# Excerpt: as §1, §2, §3, §4
# (§10) Protocol 3 is a microtiter broth dilution assay that has been adapted for dermatophytes using EMEM and is described by Granade and Artis, J. Clin. Micro., 6, 1043-1047 (1982). Both strains of dermatophytes, MICRO-1 and TRICH-1 are diluted in broth to achieve an inoculum of 1×10^4 spores/mL. The compound is serially diluted from 100 μg/mL to 0.4 μg/mL in 10-two fold dilutions. The test is incubated at 30° for 72 hrs and the MIC values are determined. The minimum fungicidal concentration (MFC) assay is performed using the 72 hr microtiter plates. (Szoka, F., Mycology Observer, November-December, 1983). These plates are shaken vigorously and lμl/broth well is transferred with a micropipetter onto the appropirate well on a 24 well agar (EMEM) plate. These plates are then incubated at 30° for 72 hrs and read for MFC's.
# [10] = system: Microsporum gypseum (MICRO-1); assay: as above; assay type: cell-based, Microsporum gypseum ATCC e9083; conditions: Nannizzia gypsea
# Excerpt: as §1, §2, §3, §4, §10
# [11] = system: Trichophyton rubrum (TRICH-1); assay: Protocol 1: agar dilution MIC, Sabouraud dextrose agar; assay type: cell-based, Trichophyton rubrum ATCC 18756
# Excerpt: as §1, §2, §3
# (§11) Appropriate standards are included with each assay. Their minimal inhibitory concentrations (MIC) values are shown in Table 4 according to the particular protocol used. Stock solutions of standard agents are stored at -70° and diluted the day of the assay. […]
# (§12) The compound is tested at four specific concentrations within the range of 100 μg/mL-0.04 μg/mL and is incorporated directly into 20 mL molten agar (50°). […] The plates are incubated at ambient temperature for seven days and the MIC values determined.
# [12] = system: Microsporum gypseum (MICRO-1); assay: as above; assay type: cell-based, Microsporum gypseum ATCC e9083; conditions: Nannizzia gypsea
# Excerpt: as §1, §2, §3, §11, §12
# [13] = Candida albicans, Protocol 5, mean of five determinations ± standard deviation, read-out: MIC CAND-1 of standards
# [14] = Protocol 4, mean of five determinations ± standard deviation, read-out: MIC CAND-1 of standards
# [15] = Protocol 4, mean of five determinations ± standard deviation, read-out: MIC CAND-2 of standards
# [16] = Candida albicans, Protocol 5, mean of five determinations ± standard deviation, read-out: MIC CAND-2 of standards
# [17] = Protocol 5, mean of five determinations ± standard deviation
# [18] = Protocol 4, mean of five determinations ± standard deviation
# [19] = 168 h, Protocol 2, ambient temperature, seven days, read-out: MIC MICRO-1
# [20] = 168 h, Protocol 2, ambient temperature, seven days, read-out: MIC TRICH-1
# [21] = Candida albicans, Protocol 5, 37°, 5% CO2, 24 hrs, read-out: MIC CAND-1
# [22] = Candida albicans, Protocol 5, 37°, 5% CO2, 24 hrs, read-out: MIC CAND-2
smiles,measurement,setting,value
"CC1(C)SSc2cn(-c3ccccc3)nc2SS1 [3,3-dimethyl-7-phenyl-1,2,4,5-pyrazolotetrathiepin]",activity (in words),fungi,inactive
Nc1nc(=O)[nH]cc1F [5-Fluorocytosine],MIC,[1]; [13],1.1 ± 0.4 µg/mL
same,MIC,[2]; [14],0.7 ± 0.2 µg/mL
same,MIC,[3]; [15],1.1 ± 0.4 µg/mL
same,MIC,[4]; [16],1.3 ± 0.4 µg/mL
C[C@@H]1[C@H](O)[C@@H](C)/C=C/C=C/C=C/C=C/C=C/C=C/C=C/[C@H](O[C@@H]2O[C@H](C)[C@@H](O)[C@H](N)[C@@H]2O)C[C@@H]2O[C@](O)(C[C@@H](O)C[C@@H](O)[C@H](O)CC[C@@H](O)C[C@@H](O)CC(=O)O[C@H]1C)C[C@H](O)[C@H]2C(=O)O [Amphotericin B],MIC CAND-1 of standards,[1]; [17],0.5 ± 0.3 µg/mL
same,MIC CAND-1 of standards,[2]; [18],0.6 ± 0.2 µg/mL
same,MIC CAND-2 of standards,[3]; [18],0.5 ± 0.3 µg/mL
same,MIC CAND-2 of standards,[4]; [17],0.7 ± 0.3 µg/mL
"CC1(C)SSSc2nn(-c3ccccc3)cc2S1 [Example 2, 2,2-Dimethyl-7-phenyl-1,3,4,5-pyrazolotetrathiepin]",MIC CAND-1 (in words),[5],Inactive at 100 μg/mL
same,MIC,[6]; [19],1 µg/mL
same,MIC CAND-2 (in words),[7],Inactive at 100 μg/mL
same,MIC,[8]; [20],0.2 µg/mL
"CC1(C)SSSc2cn(-c3ccccc3)nc2S1 [Example 3, 4,4-Dimethyl-7-phenyl-1,2,3,5-pyrazolotetrathiepin]",MIC CAND-1 (in words),[5],Inactive at 100 μg/mL
same,MIC,[6]; [19],1 µg/mL
same,MIC CAND-2 (in words),[7],Inactive at 100 μg/mL
same,MIC,[8]; [20],1 µg/mL
"Cn1cc2c(n1)SSC(C)(C)SS2 [Example 4, 3,3-Dimethyl-7-methyl-1,2,4,5-pyrazolotetrathiepin]",MIC,"[9]; Protocol 3, 30°, 72 hrs, read-out: MIC TRICH-1",12.5 µg/mL
same,MFC,"[9]; Protocol 3, in brackets, subculture on EMEM agar 30°, 72 hrs, read-out: MFC TRICH-1 (minimum fungicidal concentration)",25 µg/mL
same,MIC,[1]; [21],25 µg/mL
same,MFC,"[1]; Candida albicans, Protocol 5, in brackets, read-out: MFC CAND-1 (minimum fungicidal concentration)",50 µg/mL
same,MIC,"[10]; Protocol 3, 30°, 72 hrs, read-out: MIC MICRO-1",12.5 µg/mL
same,MFC,"[10]; Protocol 3, in brackets, subculture on EMEM agar 30°, 72 hrs, read-out: MFC MICRO-1 (minimum fungicidal concentration)",25 µg/mL
same,MIC,[4]; [22],25 µg/mL
same,MFC,"[4]; Candida albicans, Protocol 5, in brackets, read-out: MFC CAND-2 (minimum fungicidal concentration)",50 µg/mL
"Cn1cc2c(n1)SSSC(C)(C)S2 [Example 5, 2,2-Dimethyl-7-methyl-1,3,4,5-pyrazolotetrathiepin]",MIC,[1]; [21],3.2 µg/mL
same,MIC,"[2]; Protocol 4, 37°, 5% CO2, 24 hrs, read-out: MIC CAND-1",12.5 µg/mL
same,MIC,"[3]; Protocol 4, 37°, 5% CO2, 24 hrs, read-out: MIC CAND-2",6.3 µg/mL
same,MIC,"[11]; 168 h, Protocol 1, ambient temperature, seven days, read-out: MIC TRICH-1",4 µg/mL
same,MIC,[4]; [22],1.6 µg/mL
same,MIC,"[12]; 168 h, Protocol 1, ambient temperature, seven days, read-out: MIC MICRO-1",4 µg/mL
COC1=CC(=O)C[C@@H](C)[C@]12Oc1c(Cl)c(OC)cc(OC)c1C2=O [Griseofulvin],MIC,"[6]; Protocol 2, mean of five determinations ± standard deviation, read-out: MIC MICRO-1 of standards",4.5 ± 3 µg/mL
same,MIC,"[9]; Protocol 3, mean of five determinations ± standard deviation, read-out: MIC TRICH-1 of standards",6.3 µg/mL
same,MIC,"[10]; Protocol 3, mean of five determinations ± standard deviation, read-out: MIC MICRO-1 of standards",5.4 ± 2 µg/mL
same,MIC,"[11]; Protocol 1, mean of five determinations ± standard deviation, read-out: MIC TRICH-1 of standards",1.8 ± 0.7 µg/mL
same,MIC,"[8]; Protocol 2, mean of five determinations ± standard deviation, read-out: MIC TRICH-1 of standards",9.4 ± 4 µg/mL
same,MIC,"[12]; Protocol 1, mean of five determinations ± standard deviation, read-out: MIC MICRO-1 of standards",2 ± 0.7 µg/mL
CC(=O)N1CCN(c2ccc(OCC3COC(Cn4ccnc4)(c4ccc(Cl)cc4Cl)O3)cc2)CC1 (stereo not shown) [Ketoconazole],MIC,[1]; [13],0.3 ± 0.04 µg/mL
same,MIC,[2]; [14],0.15 ± 0.1 µg/mL
same,MIC,[3]; [15],0.22 ± 0.04 µg/mL
same,MIC,[4]; [16],0.2 ± 0.04 µg/mL
Clc1ccc(COC(Cn2ccnc2)c2ccc(Cl)cc2Cl)c(Cl)c1 (stereo not shown) [Miconazole],MIC,"[1]; Candida albicans, read-out: MIC CAND-1 of standards",0.5 ± 0.4 µg/mL
same,MIC,[2]; read-out: MIC CAND-1 of standards,0.36 ± 0.12 µg/mL
same,MIC,[3]; read-out: MIC CAND-2 of standards,0.5 ± 0.2 µg/mL
same,MIC,"[4]; Candida albicans, read-out: MIC CAND-2 of standards",0.5 ± 0.4 µg/mL
C[C@@H]1[C@H](O)[C@@H](C)/C=C/C=C/CC/C=C/C=C/C=C/C=C/C(O[C@H]2O[C@H](C)[C@@H](O)[C@H](N)[C@@H]2O)CC2O[C@](O)(CC(O)C(O)CCC(O)CC(O)CC(O)CC(=O)O[C@H]1C)CC(O)C2C(=O)O (stereo partly shown) [Nystatin],MIC CAND-1 of standards,[1]; [17],5.0 ± 0 µg/mL
same,MIC CAND-1 of standards,[2]; [18],6.0 ± 2.0 µg/mL
same,MIC CAND-2 of standards,[3]; [18],5.0 ± 1.5 µg/mL
same,MIC CAND-2 of standards,[4]; [17],4.5 ± 1.0 µg/mL
